Experimental data as given in patent publication US11021454B2, “Type of aryl benzofuran amidated derivative and medical use thereof” (CHINA PHARMACEUTICAL UNIVERSITY, priority 2016, dated 2021).
Marks after values point to notes of the source that are not given here.

Experiments:
[1] = target: xanthine oxidase (Homo sapiens (Human), UniProt P47989); assay: Xanthine oxidase inhibitory activity (absorbance at 295 nm, xanthine substrate); type: biochemical; conditions: average of four parallel experiments
xanthine oxidase, sequence (P47989 whole entry, species assumed): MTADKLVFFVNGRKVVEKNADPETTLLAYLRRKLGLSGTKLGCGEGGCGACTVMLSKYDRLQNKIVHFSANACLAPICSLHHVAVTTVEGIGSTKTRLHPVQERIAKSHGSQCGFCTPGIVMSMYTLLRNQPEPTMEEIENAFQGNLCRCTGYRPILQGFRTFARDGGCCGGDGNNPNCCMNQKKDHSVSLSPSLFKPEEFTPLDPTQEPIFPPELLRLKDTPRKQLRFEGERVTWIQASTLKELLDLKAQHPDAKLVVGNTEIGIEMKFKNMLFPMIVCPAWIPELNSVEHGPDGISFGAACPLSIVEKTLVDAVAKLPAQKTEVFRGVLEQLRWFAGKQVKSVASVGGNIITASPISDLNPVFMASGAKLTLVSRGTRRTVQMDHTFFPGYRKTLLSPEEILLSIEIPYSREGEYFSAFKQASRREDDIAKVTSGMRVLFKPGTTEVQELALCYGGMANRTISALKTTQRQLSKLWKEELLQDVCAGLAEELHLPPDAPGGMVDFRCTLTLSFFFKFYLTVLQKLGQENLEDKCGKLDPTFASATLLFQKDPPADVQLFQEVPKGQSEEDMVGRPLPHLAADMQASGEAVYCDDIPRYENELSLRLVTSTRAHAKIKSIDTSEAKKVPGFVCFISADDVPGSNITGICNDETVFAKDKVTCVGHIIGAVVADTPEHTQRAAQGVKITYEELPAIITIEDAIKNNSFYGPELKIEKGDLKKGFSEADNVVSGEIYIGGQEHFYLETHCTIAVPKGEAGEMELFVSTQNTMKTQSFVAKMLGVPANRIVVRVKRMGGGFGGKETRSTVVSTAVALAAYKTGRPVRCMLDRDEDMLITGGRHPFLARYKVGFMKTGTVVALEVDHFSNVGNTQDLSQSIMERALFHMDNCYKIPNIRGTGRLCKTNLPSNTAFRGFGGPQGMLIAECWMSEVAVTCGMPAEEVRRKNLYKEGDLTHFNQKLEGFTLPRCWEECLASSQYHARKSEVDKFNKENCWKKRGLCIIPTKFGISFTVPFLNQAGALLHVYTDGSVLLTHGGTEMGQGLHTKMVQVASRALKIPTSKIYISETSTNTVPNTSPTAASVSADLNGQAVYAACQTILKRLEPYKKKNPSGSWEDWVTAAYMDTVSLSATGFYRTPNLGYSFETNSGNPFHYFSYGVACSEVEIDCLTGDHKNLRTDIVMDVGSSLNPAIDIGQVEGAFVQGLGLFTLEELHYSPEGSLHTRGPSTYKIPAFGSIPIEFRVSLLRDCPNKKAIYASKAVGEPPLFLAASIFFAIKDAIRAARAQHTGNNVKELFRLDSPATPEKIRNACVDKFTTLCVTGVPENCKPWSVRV
Method: Determination of Xanthine Oxidase Inhibitory Activity of Aryl Benzofuran Amidated Derivatives and Reagents (Amino Derivatives)
(2) XOD solution: Take 25 U/2.6 mL of XOD, dilute to 0.08 U/mL of XOD working solution with 75 mM PB solution, mix well with a pipette, store on ice for future use;
(3) Substrate preparation: accurately weigh the appropriate amount of xanthine (XA) into 5 mL of 0.1 N NaOH solution, dissolve it ultrasonically, and add 95 mL of 75 mM PB solution to prepare a substrate mother liquor with a final concentration of 0.48 mM, perform vortex mixing for 1 min; it is to be freshly prepared before each experiment;
Use DB to dilute to different concentrations ([…]) before the experiment, and the DMSO content is less than 0.1%.
(§1) Data processing: Data is processed by using Excel analysis and half-inhibitory concentration (IC50) is calculated by using GraphPad Prism 6.0.2.

[2] = system: Normal hepatocyte LO2; assay: Inhibition of uric acid production in xanthine-modelled hepatocyte cell model; type: cell-based
Method: The effect of benzofuran amidated derivatives on uric acid production is evaluated using a cell model.
(2) Experimental procedure: Normal hepatocyte LO2 are inoculated in a 6-well plate (plate density 1×10^6 cells/mL), and cell experiments are performed after 4 hours of plating.
(3) Pre-treatment of mass spectrometry: take 100 μL of the medium collected, add MeOH 400 μL, CHCl3 100 μL and H2O 300 μL, perform vortex mixing, and centrifuging at 20000 g for 10 min, then take the upper layer for concentration and dry.

[3] = DPPH free radical scavenging experiment (antioxidant activity); type: biochemical; conditions: average of three parallel experiments; 0.1 mM DPPH, 30 min in the dark, 517 nm
Method: The antioxidant activity of the synthesized benzofuran amidated derivative is evaluated by DPPH free radical scavenging experiment.
(1) Preparation of DPPH solution: accurately weigh the appropriate amount of DPPH, add MeOH and perform ultrasonic dissolution to prepare 10 mM stock solution, and store at −20° C. Dilute to 0.1 mM with MeOH before the experiment and store in the dark;
Use MeOH to dilute to different concentrations ([…]) before the experiment.
as §1

[4] = system: LPS-stimulated macrophage RAW 264.7; assay: Scavenging of superoxide anion in LPS-stimulated macrophage RAW 264.7 (2-OH-E+ by LC-MS); type: cell-based; conditions: for scavenging effect on superoxide anion compared to the model group: LPS-stimulated RAW 264.7; for Decrease of 2-OH-E+ (%): test drug 10 μM, 0.1 μg/mL LPS, 24 h, RAW 264.7
Method: The antioxidant activity (the ability to scavenge superoxide anion) of the synthesized benzofuran amidated derivative is evaluated by a cell model.
After phagocytosis of bacteria, senescent denatured cells, immune complexes or oxidized low-density lipoproteins, mammalian macrophages cells enter a functional activation state, with enhanced intracellular lysosomal function and increased ROS levels, and they secrete and synthesize inflammatory cytokines. Lipopolysaccharide (LPS) is the main component of the cell wall of Gram-negative bacteria and is the main material basis for its pathogenesis; it can stimulate the production of monocytes/macrophages and release a large amount of reactive oxygen species (mainly including O2^− and H2O2), inflammatory factors such as nitric oxide (NO), IL-1β and Tumor necrosis factor-α (TNF-α) that are involved in the acute phase response of the body, causing inflammatory damage to the body. The present invention utilizes the LPS-stimulated macrophage model to evaluate the antioxidant activity of benzofuran amidated derivatives to scavenge superoxide anion at the cellular level.
(2) LPS: accurately weigh the appropriate amount of LPS, and prepare a sample stock solution of 0.1 g/ml, with DMEM and store at −20° C. for later use.
(3) Probe Stabilizer DTPA: Weigh accurately the amount of DTPA, prepare a 20 mM sample stock solution with DMSO, dilute to 100 µM with PB, and store at 4° C. for use.
(4) HE: Prepare a 20 mmol/L stock solution by dissolving the probe with dimethyl sulfoxide under anaerobic and dark conditions, and store at −80° C. in the dark. Take it out before use, prepare a 10 μmol/L solution with DMEM, place it on ice and store it in the dark.
(1) RAW 264.7 cells are cultured in Petri dishes (60 mm), 4 mL per dish, and incubated in a 5% CO2 incubator with saturated humidity at 37° C. The experiment is divided into blank group, model group and drug-administered group.
(2) After 12 h of cell culture, the supernatant is discarded, and the test drug with a final concentration of 10 μM containing 0.1 μg/mL LPS medium is added, and two parallel holes are provided for each sample to be tested.
(3) Continue to culture in a cell culture incubator for 24 h, the supernatant is discarded, the cells are washed with PBS, and added to DMEM medium containing the probe HE (10 μM) and cultured in the dark for 30 min.
(4) The cells are then washed twice with ice-cold PBS/(100 μM) DTPA, then added 1 mL PBS/(100 μM) DTPA, before the cells are divided into two with a spatula (700 μL and 300 μL) and collected into EP tubes; then they are centrifuged at 13,000 rpm for 10 min at 4° C., the supernatant is removed, and the cell pellet are stored at −80° C. for future use.
(2) Pretreatment of the sample to be tested: 500 μL acetonitrile is added to each EP tube, protected from light, sonicated (10 s, eight cycles, 100 W), and centrifuged at 12,000 g for 10 min at 4° C. The supernatant is transferred to a 1.5 mL EP tube and dried under vacuum for 1 h to obtain a red dried material; the sample is then re-dissolved with 100 μL of mass spectrometry water, and the internal standard substance galantamine is added to make the final concentration of the sample to be tested at 0.1 μM. The sample to be tested is then centrifuged at 13,000 rpm for 10 min at 4° C. and analyzed by LC-MS.

[5] = Hyperuricemia model induced by potassium oxonate in mice: serum uric acid; type: in vivo, Kunming mice; conditions: 2 h after administration, potassium oxonate 300 mg/kg
Method: The effect of benzofuran amidated derivatives on blood uric acid in mice is evaluated by an animal model of hyperuricemia induced by potassium oxonate
(1) Test animals: Kunming mice are provided by the Test Animals Center of Yangzhou University. Fasting is given 12 h before the drug administration and during the test period, and drinking water is not restricted during the experiment.
The test drug is prepared with 0.5% sodium carboxymethylcellulose (CMC-Na) at a suitable concentration; the normal control group of mice are intraperitoneally injected with 0.5% sodium carboxymethylcellulose, and the other groups are injected intraperitoneally with potassium oxonate 300 mg/kg. 1 h later, the mice in the normal control group and the model group are intraperitoneally injected with 0.5% sodium carboxymethylcellulose, and the other groups are intraperitoneally injected with 10 mL/kg of the test drug. 2 hours after the drug administration, 500 μL of blood is taken from the eyeball, placed at room temperature for 1 h, centrifuged at 3000 rpm for 5 min, and the upper serum is stored at −4° C. The uric acid level in the serum of the mice is determined according to the method as specified the uric acid detection kit.

Structure (SMILES) | IC50 [1] | Decrease of 2-OH-E+ (%) [4] | further results
CSCC[C@H](N)C(=O)O [L-met] | > 60 µM | – | –
O=C(/C=C/c1ccc(O)c2oc(-c3ccc(O)c(O)c3)cc12)O[C@H](Cc1ccc(O)c(O)c1)C(=O)O [Salvianolic acid C, reference compound] | 8.26 µM | 37.82% | Inhibition rate (%) of uric acid ([2]; 10 μM, LO2 cells, 10 μM xanthine, 24 h): 15.2%; Inhibition rate (%) of uric acid ([2]; 30 μM, LO2 cells, 10 μM xanthine, 24 h): 24.7%; Inhibition rate (%) of uric acid ([2]; 50 μM, LO2 cells, 10 μM xanthine, 24 h): 31.4%; inhibitory effect on the formation of uric acid in hepatocyte model ([2]; xanthine modeling): significant inhibitory effect; IC50 [3]: 6.87 µM; scavenging effect on superoxide anion compared to the model group [4]: obvious scavenging effect
COC(=O)[C@H](Cc1ccc(O)c(O)c1)NC(=O)/C=C/c1ccc(O)c2oc(-c3ccc(O)c(O)c3)cc12 [Compound 5a, Methyl (S,E)-3-(3,4-dihydroxyphenyl)-2-(3-(2-(3,4-dihydroxyphenyl)-7-hydroxybenzofuran-4-yl)acrylamido)propanoate] | – | 78.59% | –
O=C(/C=C/c1ccc(O)c2oc(-c3ccc(O)c(O)c3)cc12)N[C@H](Cc1ccc(O)c(O)c1)C(=O)O [Compound 6b, (R,E)-3-(3,4-dihydroxyphenyl)-2-(3-(2-(3,4-dihydroxyphenyl)-7-hydroxybenzofuran-4-yl)acrylamido) propanoic Acid] | – | 80.81% | –
N[C@H](Cc1ccc(O)c(O)c1)C(=O)O [D-dopa] | > 60 µM | – | –
O=C(/C=C/c1ccc(O)c2oc(-c3ccc(O)c(O)c3)cc12)N[C@@H](Cc1ccccc1)C(=O)O [Compound 6d, (E)-(3-(2-(3,4-dihydroxyphenyl)-7-hydroxybenzofuran-4-yl)acryloyl)-L-phenylalanine] | – | 81.27% | –
N[C@@H](Cc1c[nH]c2ccccc12)C(=O)O [L-trp] | > 60 µM | – | –
N[C@@H](Cc1ccc(O)c(O)c1)C(=O)O [L-dopa] | > 60 µM | – | –
C[C@H](N)C(=O)O [L-ala] | > 60 µM | – | –
Cc1nc(-c2ccc(OCC(C)C)c(C#N)c2)sc1C(=O)O [Febuxostat] | – | – | inhibition at 5 µM ([2]; Homo sapiens, L02, 5 μM, LO2 cells, 10 μM xanthine, 24 h, read-out: Inhibition rate (%) of uric acid): 78.7%
C[C@H](NC(=O)/C=C/c1ccc(O)c2oc(-c3ccc(O)c(O)c3)cc12)C(=O)O [Compound 6c, (E)-(3-(2-(3,4-dihydroxyphenyl)-7-hydroxybenzofuran-4-yl)acryloyl)-L-alanine] | – | 41.65% | scavenging effect on superoxide anion compared to the model group [4]: obvious scavenging effect
COC(=O)[C@H](C)NC(=O)/C=C/c1ccc(O)c2oc(-c3ccc(O)c(O)c3)cc12 [Compound 5c, Methyl (E)-(3-(2-(3,4-dihydroxyphenyl)-7-hydroxybenzofuran-4-yl)acryloyl)-L-alaninate] | – | 60.54% | –
COC(=O)[C@@H](Cc1ccc(OC)c(OC)c1)OC(=O)/C=C/c1ccc(OC)c2oc(-c3ccc(OC)c(OC)c3)cc12 [Compound 7, (2R)-3-(3,4-dimethoxyphenyl)-1-methoxy-1-oxopropan-2-yl (2E)-3-[2-(3,4-dimethoxyphenyl)-7-methoxy-1-benzofuran-4-yl]prop-2-enoate] | > 60 µM | – | IC50 [3]: > 100 µM
O=C(/C=C/c1ccc(O)c2oc(-c3ccc(O)c(O)c3)cc12)N[C@@H](Cc1ccc(O)cc1)C(=O)O [Compound 6e, (E)-(3-(2-(3,4-dihydroxyphenyl)-7-hydroxybenzofuran-4-yl)acryloyl)-L-tyrosine] | – | 83.41% | Serum uric acid value ([5]; 20 mg/kg intraperitoneal): 3.82 ± 0.62 mg/dL; Serum uric acid value ([5]; 40 mg/kg intraperitoneal): 3.54 ± 0.26 mg/dL; Serum uric acid value ([5]; 80 mg/kg intraperitoneal): 3.26 ± 0.44 mg/dL
Cc1c(C)c2c(c(C)c1O)CC[C@@](C)(CCC[C@H](C)CCC[C@H](C)CCCC(C)C)O2 [Ve, vitamin E, reference compound] | – | 53.18% | –
N[C@@H](Cc1ccc(O)cc1)C(=O)O [L-tyr] | > 60 µM | – | –
N[C@@H](Cc1ccccc1)C(=O)O [L-phe] | > 60 µM | – | –
COC(=O)[C@@H](Cc1ccc(O)c(O)c1)NC(=O)/C=C/c1ccc(O)c2oc(-c3ccc(O)c(O)c3)cc12 [Compound 5b] | – | 74.16% | Serum uric acid value (mg/dl) ([5]; 20 mg/kg intraperitoneal): 3.87 ± 0.31*^a mg/dl; Serum uric acid value ([5]; 40 mg/kg intraperitoneal): 3.61 ± 0.25 mg/dL; Serum uric acid value ([5]; 80 mg/kg intraperitoneal): 3.30 ± 0.46 mg/dL
Oc1ncnc2[nH]ncc12 [Allopurinol, reference compound] | – | – | Serum uric acid value ([5]; 20 mg/kg intraperitoneal): 3.18 ± 0.50 mg/dL
N[C@@H](CS)C(=O)O [L-cys] | > 60 µM | – | –
